A melting point compilation (Tetko et al.)

Compound | melting point [°C]
CCc1ccc(C(=O)O)cc1C#N | 141 to 143
CC(=CC(=O)O)c1ccccc1C | 81 to 83
Cc1ccc(C(=O)O)c(C)n1 | 168 to 170
COC(=O)C1COc2ccccc2O1 (configuration not stated) | 37 to 39
Cc1c(C)c(C)c(C(=O)CCl)c(C)c1C | 70 to 72
O=C(O)c1cc(-c2ccco2)nn1-c1ccccc1 | 159 to 161
CNC(=O)Cn1nc(N)cc1C | 115 to 117
CCOC(=O)c1sc(-c2ccc(Br)cc2)cc1N | 105 to 106
COc1ccc2[nH]c3c(c2c1)CCC3 | 119 to 121
CCOC(=O)c1sc2nc(CCl)[nH]c(=O)c2c1C | 190 to 192
N#Cc1cc(Br)ccc1S(=O)(=O)Cl | 94 to 96
CCCSc1nsc(N)n1 | 54 to 56
CC1=NS(=O)(=O)NC(C)=C1CCC(=O)O | 162 to 164
Cc1oc(-c2ccc(Cl)c(Cl)c2)nc1C(=O)O | 264 to 266
COCCOc1ccc(C#N)cc1 | 44 to 46
Cn1nccc1CO | 58 to 60
CNC1CCCCNC1=O (configuration not stated) | 234 to 236
COc1cc2c(cc1OC)NCC2 | 103 to 105
Fc1ccc(-c2nnc(Cl)c3ccccc23)cc1 | 186 to 188
CN1C(=O)CC(CO)C1c1cccc(Cl)c1 (configuration not stated) | 101 to 103
CC(Cl)C(=O)N1CCNC1=O (configuration not stated) | 116 to 120
CC(C)Oc1ncc(C(=O)O)cc1Cl | 171 to 173
Nc1ccc2nc(N3CCCC3)sc2c1 | 201 to 203
O=C(O)C(=O)c1ccc(F)c(F)c1 | 88 to 90
Cc1cc(C)c2cc(C(=O)O)sc2n1 | 198 to 200

Compound | melting point [°C]
Nc1ccc(N2CCSCC2)c(C(=O)O)c1 | 263 to 265
Cc1c(C=O)cc(C#N)n1C | 85 to 97
O=C(O)C1CC1c1ccc(Br)cc1 (configuration not stated) | 122 to 124
Nc1sc2c(c1C(=O)NCc1ccccc1)CCCC2 | 112 to 114
CCc1c(C(=O)O)nnn1-c1cccc(N)c1 | 179 to 181
COC(=O)/C=C/c1ccc(OC)c(S(=O)(=O)Cl)c1 | 115 to 117
O=C1Nc2c(F)cc(Cl)cc2C1=O | 219 to 221
NC(=O)c1cnn2c3c(cnc12)CCOC3=O | 289 to 291
c1ccc(-c2nc[nH]n2)nc1 | 159 to 161
O=S(=O)(Cl)c1c(Cl)nc2ccccn12 | 101 to 103
O=C(O)c1ccnc(N2CCCC2)n1 | 205 to 207
Sc1nc(-c2ccccc2)ns1 | 161 to 163
COC(=O)C(=O)CN1C(=O)c2ccccc2C1=O | 134 to 136
Clc1cc2nn[nH]c2cc1Cl | 249 to 251
Nc1ccc(Cl)cc1C(=O)Nc1ccc(Cl)cn1 | 177 to 179
O=C(O)c1cccc(S)c1 | 144 to 147
CC(C(=O)O)N(C)C(=O)OCC1c2ccccc2-c2ccccc21 (configuration not stated) | 119 to 121
COc1ccc(OC)c(CBr)c1 | 77 to 79
Cc1cc(F)ccc1NC(=O)C=NO | 132 to 134
CCCNC(=O)NC(=O)CCl | 119 to 121
O=C(c1ccc2c(c1)CCO2)c1cc(Cl)ccc1Cl | 81 to 83
Cc1cc2oc(=O)cc(CCl)c2cc1Cl | 218 to 220
CSCCC(NC(N)=O)C(=O)O (configuration not stated) | 141 to 143
Cc1ccc(N)cc1N1CCCS1(=O)=O | 128 to 130
NS(=O)(=O)c1ccc(OCC(=O)O)c(F)c1 | 177 to 179

Compound | melting point [°C]
O=C1CCc2c(F)cc(F)cc21 | 95 to 97
O=C(O)c1cc(F)cc2nccnc12 | 219 to 221
Cc1nnc(S)n1CC(=O)N(C)C | 260 to 262
Cc1ccc(NS(=O)(=O)c2ccsc2C(=O)O)cc1 | 192 to 194
CC(=O)N(C)CCC(N)=S | 109 to 111
NC(=O)N1CC=C(c2c[nH]c3ccccc23)CC1 | 199 to 201
Cc1nc(-c2ccncc2)[nH]c(=O)c1CC(=O)O | 252 to 254
CCN(CC)S(=O)(=O)c1ccc2c(c1)CCCN2 | 131 to 133
Cc1sc2nc(CCl)[nH]c(=O)c2c1C | 190 to 192
O=C(O)C(NS(=O)(=O)c1cccc(Cl)c1)c1ccccc1 (configuration not stated) | 168 to 170
CS(=O)(=O)c1ccccc1-n1cc(C(=O)O)cn1 | 225 to 227
COC(=O)c1ccc(CBr)cc1F | 74 to 76
Nc1nsc(N2CCCC2)n1 | 244 to 246
Cc1cnc2c(c1)NC(=O)CN2 | 249 to 251
O=C(O)c1ccc2c(c1)COC2 | 164 to 166
CCOC(=O)c1sc2ncc(C(=O)OC)cc2c1N | 213 to 215
O=C(O)C1CC1c1cccc(C(F)(F)F)c1 (configuration not stated) | 84 to 86
O=C1COc2c1ccc(Cl)c2Cl | 141 to 143
Cc1c(C=O)c2ccccn2c1C#N | 170 to 172
NNc1ccc(S(=O)(=O)Nc2cccc(Cl)c2)cc1[N+](=O)[O-] | 195 to 197
Cc1n[nH]c(C)c1[N+](=O)[O-] | 121 to 123
Cc1sc2ncn(CC(=O)O)c(=O)c2c1C | 229 to 231
CC(C)Nc1ccc(Br)cc1[N+](=O)[O-] | 97 to 99
Cc1cc(C(=O)C(C)Cl)c(C)n1-c1ccc(Cl)cc1 (configuration not stated) | 107 to 111
O=C(O)C1CC1c1ccc2c(c1)OCCO2 (configuration not stated) | 160 to 162

Compound | melting point [°C]
CCCCc1ccc(N2C(=O)C=CC2=O)cc1 | 40 to 44
O=C(O)C1CC1C(=O)O (configuration not stated) | 177 to 179
O=C(O)c1ccc(Br)c(S(=O)(=O)N2CCOCC2)c1 | 167 to 169
Cc1c(Cl)cccc1N1C(=O)C=CC1=O | 68 to 70
NC(=S)C1CN(Cc2ccccc2)CCO1 (configuration not stated) | 90 to 92
Cc1noc(C)c1S(=O)(=O)N1CCC(C(=O)O)CC1 | 210 to 215
N#CCc1nc2cc(C(F)(F)F)ccc2s1 | 95 to 97
NC1(C(=O)O)Cc2ccccc2C1 | 254 to 256
O=S(=O)(Cl)c1ccc(N2CCCS2(=O)=O)cc1 | 184 to 186
NS(=O)(=O)c1cc(Cl)ccc1[N+](=O)[O-] | 157 to 159
NS(=O)(=O)c1ccc2c(c1)C(=O)NCC2 | 240 to 242
O=C1OCCc2cnc3ncnn3c21 | 271 to 273
O=C(O)c1cccc(N2CC=CC2)c1 | 193 to 195
O=C(O)c1c2c(nc3ccccc13)C(=Cc1cccs1)CCC2 | 176 to 178
O=Cc1ccnc(-c2ccccc2)n1 | 116 to 118
Cc1cccc2[nH]cc(CC(=O)O)c12 | 149 to 151
CCOC(=O)Nc1nc2ccc(N)cc2s1 | 339 to 341
CCn1ncc2ccc(N)cc21 | 117 to 119
O=C(O)c1sccc1S(=O)(=O)N1CCCCC1CCO (configuration not stated) | 121 to 123
COc1nc(Cl)nc(N2CCCCCC2)n1 | 114 to 116
O=Cc1cc(CCl)ccc1O | 87 to 89
Cc1cc(S(=O)(=O)Cl)cc(C(=O)O)c1C | 179 to 181
Cc1nn(Cc2ccc(F)cc2)c2sc(C(=O)O)cc12 | 227 to 229
O=c1[nH]c(-c2cccc(Br)c2)no1 | 198 to 200
CS(=O)(=O)N1CCCc2cc(C(=O)CCl)ccc21 | 118 to 120

Compound | melting point [°C]
Clc1ccc2nnc(C3CC3)n2n1 | 117 to 119
Nc1ccc(N2CCCC2=O)cn1 | 165 to 167
N#Cc1cnc2c(OC(F)F)cccc2c1Cl | 120 to 122
NCCc1cccc(OCCCc2ccccc2)c1 | 44 to 46
Sc1nccn1Cc1ccccc1 | 146 to 148
CC1CN(Cc2csc(N)n2)CC(C)O1 (configuration not stated) | 132 to 134
CS(=O)(=O)c1ccc(CCN)cc1 | 76 to 78
OC1CCc2cn[nH]c2C1 (configuration not stated) | 154 to 156
Cc1[nH]c(=O)sc1C | 146 to 148
CC(=O)c1ccc(N2CCCC2)cc1O | 120 to 122
O=C(O)CSc1nncn1-c1ccccc1 | 207 to 209
Nc1ccccc1C(=O)NCC1CCCO1 (configuration not stated) | 78 to 80
CC1(c2ccccc2)NC(=O)N(NC(=O)CCl)C1=O (configuration not stated) | 150 to 152
c1ccc(Nc2nnns2)cc1 | 144 to 146
CC(C)(C)Nc1cc(C(=O)O)c(N)cc1F | 199 to 201
CN(C)c1ncccc1O | 173 to 175
CC(C)Cc1csc2nc(CC#N)[nH]c(=O)c12 | 218 to 220
N#Cc1cc(C(N)=O)c[nH]1 | 245 to 247
O=c1[nH]ccs1 | 55 to 57
CCCCC1NCCNC1=O (configuration not stated) | 67 to 69
CN(C)Cc1ccc(C(=O)NN)o1 | 116 to 118
Cc1ccc(-n2c(N)nc3cc(Br)ccc32)cc1 | 194 to 196
COc1cccc(-c2noc(CCl)n2)c1 | 38 to 40
NC(=O)c1cnn(-c2ccccc2)c1N | 167 to 170
O=C(O)CNc1cccc(C(F)(F)F)c1 | 123 to 125

Compound | melting point [°C]
Nc1cccc(OCCF)c1 | 33 to 35
O=C1NCCSC1Cc1ccccc1 (configuration not stated) | 107 to 109
CCC(C)NS(=O)(=O)c1cccc(N)c1 (configuration not stated) | 89 to 91
CC(N)c1ccc(-c2ccncc2)cc1 (configuration not stated) | 87 to 89
O=C(O)C(Br)C12CC3CC(CC(C3)C1)C2 (configuration not stated) | 162 to 166
NCCNC(=O)c1ccc(O)cc1 | 191 to 193
COc1ccc(Br)cc1C1NC(=O)NC1=O (configuration not stated) | 209 to 211
O=C(O)C1CCCN(S(=O)(=O)c2cccnc2)C1 (configuration not stated) | 214 to 216
O=c1[nH]cnc2ccsc12 | 219 to 221
Cc1cc(-c2nc3cc(F)ccc3s2)ccc1N | 191 to 193
Cc1nc2ccnn2c(C)c1C(=O)O | 194 to 196
CCOC(=O)c1nc(C)n[nH]1 | 184 to 186
CC(=O)NCCNCc1ccccc1 | 51 to 53
COc1ccc(-c2[nH]c3ccccc3c2CCC(=O)O)c(OC)c1 | 167 to 169
Cc1ccc(C)n1Cc1ccccc1Cl | 87 to 89
FC(F)(F)Oc1ccc(-n2nnnc2S)cc1 | 123 to 125
COc1ccc(C(N)=NO)cc1OC | 164 to 166
Cc1nc(-c2cccs2)ccc1C(=O)O | 191 to 193
O=C(CCl)NCC1CCSCC1 | 83 to 85
Cc1nc(CSc2ccc(C(=O)O)cc2)cs1 | 87 to 90
CCN(CC)C(=O)c1cccc(O)c1 | 80 to 82
CCc1nnsc1C(=O)O | 125 to 133
